Source: patent US8574563B2 (Bristol-Myers Squibb Company, priority 2006, dated 2013)

Test system: HCV 1b-377-neo replicon cells
Assay: HCV replicon assay, HCV 1b-377-neo replicon cells (1b FRET)
Type: cell-based, Hepatitis C virus genotype 1b
Details: HCV 1b-377-neo replicon cells, HCV 1b genotype; for EC50: Hepatitis C virus, read-out: EC50 range against HCV 1b (Table 2, Range)
Outline: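 Compounds were tested in genotype 1b subgenomic replicon cells carrying a neomycin marker, alongside a matched replicon line with an NS5A Y2065H substitution that confers resistance to a reference NS5A inhibitor.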

SMILES	EC50 [nM]	EC50 range against HCV 1b (Table 2, Range)
CC(C)[C@H](NC(=O)N(C)C)C(=O)N1CCC[C@H]1c1ncc(-c2ccc(-c3ccc(-c4cnc([C@@H]5CCCN5C(=O)[C@@H](NC(=O)N(C)C)C(C)C)[nH]4)cc3)cc2)[nH]1 [OL-1, 3-((1S)-1-(((2S)-2-(4-(4′-(2-((2S)-1-((2S)-2-((dimethylcarbamoyl)amino)-3-methylbutanoyl)-2-pyrrolidinyl)-1H-imidazol-4-yl)-4-biphenylyl)-1H-imidazol-2-yl)-1-pyrrolidinyl)carbonyl)-2-methylpropyl)-1,1-dimethylurea]	0.001 to 0.999	
COC(=O)N[C@H](C(=O)N1CCC[C@H]1c1nc(-c2ccc(-c3ccc(-c4c[nH]c([C@@H]5CCCN5C(=O)[C@H](NC5CCOCC5)C(C)C)n4)cc3)cc2)c[nH]1)C(C)C [Example F52, methyl ((1S)-2-methyl-1-(((2S)-2-(4-(4′-(2-((2S)-1-(N-(tetrahydro-2H-pyran-4-yl)-D-valyl)-2-pyrrolidinyl)-1H-imidazol-4-yl)-4-biphenylyl)-1H-imidazol-2-yl)-1-pyrrolidinyl)carbonyl)propyl)carbamate]	0.001 to 0.999	
COC(=O)N[C@@H](C(=O)N1CCC[C@H]1c1ncc(-c2ccc(-c3ccc(-c4cnc([C@@H]5CCCN5C(=O)Cc5ccccc5Cl)[nH]4)cc3)cc2)[nH]1)c1ccccc1 [Example 84-66, methyl ((1R)-2-((2S)-2-(5-(4′-(2-((2S)-1-((2-chlorophenyl)acetyl)-2-pyrrolidinyl)-1H-imidazol-5-yl)-4-biphenylyl)-1H-imidazol-2-yl)-1-pyrrolidinyl)-2-oxo-1-phenylethyl)carbamate]		C-D
COC(=O)N[C@@H](Cc1cncn1C)C(=O)N1CCC[C@H]1c1ncc(-c2ccc(-c3ccc(-c4cnc([C@@H]5CCCN5C(=O)[C@@H](NC(=O)OC)C(C)C)[nH]4)cc3)cc2)[nH]1 [cj-46, methyl ((1S)-1-(((2S)-2-(5-(4′-(2-((2S)-1-((2S)-2-((methoxycarbonyl)amino)-3-(1-methyl-1H-imidazol-5-yl)propanoyl)-2-pyrrolidinyl)-1H-imidazol-5-yl)-4-biphenylyl)-1H-imidazol-2-yl)-1-pyrrolidinyl)carbonyl)-2-methylpropyl)carbamate]	0.001 to 0.999	
COC(=O)N[C@@H](Cc1cn(C)cn1)C(=O)N1CCC[C@H]1c1ncc(-c2ccc(-c3ccc(-c4cnc([C@@H]5CCCN5C(=O)[C@@H](NC(=O)OC)C(C)C)[nH]4)cc3)cc2)[nH]1 [cj-42, methyl ((1S)-1-(((2S)-2-(5-(4′-(2-((2S)-1-((2S)-2-((methoxycarbonyl)amino)-3-(1-methyl-1H-imidazol-4-yl)propanoyl)-2-pyrrolidinyl)-1H-imidazol-5-yl)-4-biphenylyl)-1H-imidazol-2-yl)-1-pyrrolidinyl)carbonyl)-2-methylpropyl)carbamate]	0.001 to 0.999	
